Test results taken from publication PMC10938434, “Design, Synthesis, and Biological Effect Studies of Novel Benzofuran–Thiazolylhydrazone Derivatives as Monoamine Oxidase Inhibitors” (ACS Omega, 2024).
Values joined by “and” are separate entries in the source; they are usually repeats but may differ in a detail not shown here. Equal entries are not always repeated.

Assays:
MAO-A enzyme = biological target: T1, MAO-A enzyme (Homo sapiens, UniProt P21397); test: MAO-A enzyme inhibition, fluorometric method; format: biochemical; conditions: for IC50: 10^–3–10^–9 M concentrations; for selectivity: MAO isoform preferentially inhibited; for SI* selectivity index: SI = IC50MAO-B/IC50 MAO-A; for inhibition at 1000 µM: read-out: MAO-A % inhibition 10^–3 M; for inhibition at 100 µM: read-out: MAO-A % inhibition 10^–4 M
T1 sequence (P21397 1-527): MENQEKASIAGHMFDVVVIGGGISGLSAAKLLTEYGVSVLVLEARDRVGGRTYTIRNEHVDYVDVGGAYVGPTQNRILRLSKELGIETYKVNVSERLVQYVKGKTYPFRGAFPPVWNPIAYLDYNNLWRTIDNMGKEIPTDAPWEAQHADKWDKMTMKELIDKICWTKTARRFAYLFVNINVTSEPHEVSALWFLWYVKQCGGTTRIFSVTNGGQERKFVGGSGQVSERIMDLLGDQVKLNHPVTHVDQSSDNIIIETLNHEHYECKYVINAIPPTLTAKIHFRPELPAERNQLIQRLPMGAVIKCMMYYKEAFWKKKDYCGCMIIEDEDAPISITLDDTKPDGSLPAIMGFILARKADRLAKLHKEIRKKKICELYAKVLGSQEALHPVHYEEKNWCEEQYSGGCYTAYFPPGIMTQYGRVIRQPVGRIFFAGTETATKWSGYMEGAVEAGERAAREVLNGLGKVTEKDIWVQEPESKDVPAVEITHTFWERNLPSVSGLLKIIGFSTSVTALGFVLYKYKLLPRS
Source text: (§1) Inhibition profiles of the synthesized compounds on MAO enzymes were investigated by the fluorometric method.
(§2) In every step of the method, distilled water obtained from a Millipor, a Milli-Q Synthesis A10 purification device, was used. Care was taken in preparing all of the solutions used fresh and to consume them within 1 week after preparation. A BioTek-Precision Power robotic pipetting system was used in the processes of separating the solutions prepared in the enzyme inhibition study, applying the test compounds to 96-well plates, and adding the enzyme–substrate solutions.

MAO-B enzyme = biological target: T2, MAO-B enzyme (Homo sapiens, UniProt P27338); test: MAO-B enzyme inhibition, fluorometric method; format: biochemical; conditions: for inhibition at 1000 µM: 10^–3 M; for inhibition at 100 µM: read-out: MAO-B % inhibition 10^–4 M, 10^–4 M
T2 sequence (P27338 1-520): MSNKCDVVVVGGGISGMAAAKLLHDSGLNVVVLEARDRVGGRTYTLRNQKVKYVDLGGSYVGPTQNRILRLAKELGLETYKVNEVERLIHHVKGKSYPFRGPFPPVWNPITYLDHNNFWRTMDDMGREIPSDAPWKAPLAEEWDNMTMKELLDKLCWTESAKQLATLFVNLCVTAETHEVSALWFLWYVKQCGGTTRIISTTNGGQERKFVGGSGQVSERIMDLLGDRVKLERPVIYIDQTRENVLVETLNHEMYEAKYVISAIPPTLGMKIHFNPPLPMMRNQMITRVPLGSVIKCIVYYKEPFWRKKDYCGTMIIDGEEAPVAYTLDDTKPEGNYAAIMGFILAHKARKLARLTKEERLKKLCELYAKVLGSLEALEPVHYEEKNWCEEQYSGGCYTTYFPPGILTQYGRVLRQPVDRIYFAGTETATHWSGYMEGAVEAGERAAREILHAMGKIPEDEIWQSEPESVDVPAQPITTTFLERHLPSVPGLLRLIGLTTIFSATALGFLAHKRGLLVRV
Source text: as §1
as §2, with “solutions. The creation, monitoring, and spectrophotometric measurements of the enzyme protocol were performed on a BioTek-Synergy H1 microplate reader.[41],[42]” for “solutions.”

[1] = In vitro BBB permeability assay (PAMPA); format: in vitro ADME
Cytotoxicity test (MTT) = format: cell-based, mouse; conditions: mouse, NIH3T3 mouse embryo fibroblast cells, 24 h
Experimental: (§3) Just as important as the effectiveness of a compound is its side effect profile. For this purpose, cytotoxic effect tests of compound 2l were carried out. NIH3T3 (healthy mouse fibroblast cells) was used as the healthy cell in the experimental procedure.
(§4) 3-(4,5-Dimethylthiazol-2-yl)-2,5-diphenyl tetrazolium bromide (MTT) stock solution (5 mg mL^–1) was prepared by dissolving in phosphate buffer (PBS). The viable cell count of NIH/3T3 (mouse healthy embryo fibroblast cells) cells grown in appropriate medium and culture medium was characterized, and each cell line was seeded in 96-well plates with 3000 cells in each well, and the cells were incubated for 24 h for their adhesion. […] At the end of the incubation, the medium in each well was removed and 100 μL of DMSO was added as a solvent and the absorbance values were read in an enzyme-linked immunosorbent assay (ELISA) device (Bio Tek Cytation3 multimode microplate reader) at a wavelength of 540 nm, with eight wells in each group. […] The obtained absorbance values give the metabolic activities of the cells, and these values are associated with the number of living cells. The results are determined as % inhibition values according to the formula given, and IC50 values are calculated from these values by using the Excel program.[52]−[54]

[2] = test system: NIH3T3 (healthy mouse fibroblast cells); test: Cytotoxicity test (MTT); format: cell-based
Experimental: as §3, §4

SMILES: C(=NNc1nc(-c2ccccc2)cs1)c1cc2ccccc2o1 [2a, 2-(2-(Benzofuran-2-ylmethylene)hydrazinyl)-4-phenylthiazole]
- IC50 (MAO-A enzyme): 0.08 ± 0.01 µM
- selectivity (MAO-A enzyme): MAO-A
- SI* selectivity index (MAO-A enzyme): >9.91
- inhibition at 1000 µM (MAO-A enzyme): 90.4 ± 1.66%
- inhibition at 100 µM (MAO-A enzyme): 83.7 ± 1.09%
- IC50 (MAO-B enzyme): 0.8 ± 0.03 µM
- inhibition at 1000 µM (MAO-B enzyme): 85.2 ± 1.01%
- inhibition at 100 µM (MAO-B enzyme): > 50%

SMILES: Cc1ccc(-c2csc(NN=Cc3cc4ccccc4o3)n2)cc1 [2b, 2-(2-(Benzofuran-2-ylmethylene)hydrazinyl)-4-(p-tolyl)thiazole]
- IC50 (MAO-A enzyme): 0.21 ± 0.01 µM
- selectivity (MAO-A enzyme): MAO-A
- SI* selectivity index (MAO-A enzyme): >458.72
- inhibition at 1000 µM (MAO-A enzyme): 87 ± 1.92%
- inhibition at 100 µM (MAO-A enzyme): 78.2 ± 1.44%
- IC50 (MAO-B enzyme): > 100 µM
- inhibition at 1000 µM (MAO-B enzyme): 64.5 ± 1.12%
- inhibition at 100 µM (MAO-B enzyme): 47.1 ± 0.85%

SMILES: COc1ccc(-c2csc(NN=Cc3cc4ccccc4o3)n2)cc1 [2c, 2-(2-(Benzofuran-2-ylmethylene)hydrazinyl)-4-(4-methoxyphenyl)thiazole]
- IC50 (MAO-A enzyme): 0.18 ± 0.01 µM
- selectivity (MAO-A enzyme): MAO-A
- SI* selectivity index (MAO-A enzyme): >568.18
- inhibition at 1000 µM (MAO-A enzyme): 85.2 ± 2.03%
- inhibition at 100 µM (MAO-A enzyme): 72.8 ± 1.36%
- IC50 (MAO-B enzyme): > 100 µM
- inhibition at 1000 µM (MAO-B enzyme): 55.8 ± 0.96%
- inhibition at 100 µM (MAO-B enzyme): 42.8 ± 0.89%

SMILES: N#Cc1ccc(-c2csc(NN=Cc3cc4ccccc4o3)n2)cc1 [2d, 4-(2-(2-(Benzofuran-2-ylmethylene)hydrazinyl)thiazol-4-yl)benzonitrile]
- IC50 (MAO-A enzyme): 0.31 ± 0.01 µM
- selectivity (MAO-A enzyme): MAO-A
- SI* selectivity index (MAO-A enzyme): >326.79
- inhibition at 1000 µM (MAO-A enzyme): 80.8 ± 1.69%
- inhibition at 100 µM (MAO-A enzyme): 71 ± 1.18%
- IC50 (MAO-B enzyme): > 100 µM
- inhibition at 1000 µM (MAO-B enzyme): 69 ± 1.05%
- inhibition at 100 µM (MAO-B enzyme): 40.7 ± 0.98%

SMILES: O=[N+]([O-])c1ccc(-c2csc(NN=Cc3cc4ccccc4o3)n2)cc1 [2e, 2-(2-(Benzofuran-2-ylmethylene)hydrazinyl)-4-(4-nitrophenyl)thiazole]
- IC50 (MAO-A enzyme): 0.26 ± 0.01 µM
- selectivity (MAO-A enzyme): MAO-A
- SI* selectivity index (MAO-A enzyme): >386.10
- inhibition at 1000 µM (MAO-A enzyme): 83.2 ± 1.65%
- inhibition at 100 µM (MAO-A enzyme): 69.3 ± 0.9%
- IC50 (MAO-B enzyme): > 100 µM
- inhibition at 1000 µM (MAO-B enzyme): 72.1 ± 1.4%
- inhibition at 100 µM (MAO-B enzyme): 48.3 ± 0.86%

SMILES: Fc1ccc(-c2csc(NN=Cc3cc4ccccc4o3)n2)cc1 [2f, 2-(2-(Benzofuran-2-ylmethylene)hydrazinyl)-4-(4-fluorophenyl)thiazole]
- IC50 (MAO-A enzyme): 0.34 ± 0.01 µM
- selectivity (MAO-A enzyme): MAO-A
- SI* selectivity index (MAO-A enzyme): >4.06
- inhibition at 1000 µM (MAO-A enzyme): 85.7 ± 1.48%
- inhibition at 100 µM (MAO-A enzyme): 73.6 ± 1.16%
- IC50 (MAO-B enzyme): 1.37 ± 0.06 µM
- inhibition at 1000 µM (MAO-B enzyme): 82.7 ± 1.66%
- inhibition at 100 µM (MAO-B enzyme): > 50%

SMILES: Clc1ccc(-c2csc(NN=Cc3cc4ccccc4o3)n2)cc1 [2g, 2-(2-(Benzofuran-2-ylmethylene)hydrazinyl)-4-(4-chlorophenyl)thiazole]
- IC50 (MAO-A enzyme): 0.09 ± 0.01 µM
- selectivity (MAO-A enzyme): MAO-A
- SI* selectivity index (MAO-A enzyme): >1075.27
- inhibition at 1000 µM (MAO-A enzyme): 79.5 ± 1.06%
- inhibition at 100 µM (MAO-A enzyme): 68.7 ± 0.94%
- IC50 (MAO-B enzyme): > 100 µM
- inhibition at 1000 µM (MAO-B enzyme): 68.4 ± 0.97%
- inhibition at 100 µM (MAO-B enzyme): 45.2 ± 0.86%

SMILES: Brc1ccc(-c2csc(NN=Cc3cc4ccccc4o3)n2)cc1 [2h, 2-(2-(Benzofuran-2-ylmethylene)hydrazinyl)-4-(4-bromophenyl)thiazole]
- IC50 (MAO-A enzyme): 0.42 ± 0.02 µM
- selectivity (MAO-A enzyme): MAO-A
- SI* selectivity index (MAO-A enzyme): >2.53
- inhibition at 1000 µM (MAO-A enzyme): 86.8 ± 1.6%
- inhibition at 100 µM (MAO-A enzyme): 78.5 ± 1.09%
- IC50 (MAO-B enzyme): 1.06 ± 0.05 µM
- inhibition at 1000 µM (MAO-B enzyme): 70.2 ± 1.36%
- inhibition at 100 µM (MAO-B enzyme): > 50%

SMILES: Cc1ccc(-c2csc(NN=Cc3cc4ccccc4o3)n2)c(C)c1 [2i, 2-(2-(Benzofuran-2-ylmethylene)hydrazinyl)-4-(2,4-dimethylphenyl)thiazole]
- IC50 (MAO-A enzyme): 0.43 ± 0.02 µM
- selectivity (MAO-A enzyme): MAO-A
- SI* selectivity index (MAO-A enzyme): >3.93
- inhibition at 1000 µM (MAO-A enzyme): 84.2 ± 1.35%
- inhibition at 100 µM (MAO-A enzyme): 71.3 ± 1.86%
- IC50 (MAO-B enzyme): 1.69 ± 0.08 µM
- inhibition at 1000 µM (MAO-B enzyme): 73.5 ± 1.49%
- inhibition at 100 µM (MAO-B enzyme): > 50%

SMILES: COc1ccc(-c2csc(NN=Cc3cc4ccccc4o3)n2)c(OC)c1 [2j, 2-(2-(Benzofuran-2-ylmethylene)hydrazinyl)-4-(2,4-dimethoxyphenyl)thiazole]
- IC50 (MAO-A enzyme): 0.14 ± 0.01 µM
- selectivity (MAO-A enzyme): MAO-A
- SI* selectivity index (MAO-A enzyme): >719.42
- inhibition at 1000 µM (MAO-A enzyme): 87.5 ± 1.8%
- inhibition at 100 µM (MAO-A enzyme): 68.4 ± 1.15%
- IC50 (MAO-B enzyme): > 100 µM
- inhibition at 1000 µM (MAO-B enzyme): 67.9 ± 1.3%
- inhibition at 100 µM (MAO-B enzyme): 41.5 ± 0.75%

SMILES: Fc1ccc(-c2csc(NN=Cc3cc4ccccc4o3)n2)c(F)c1 [2k, 2-(2-(Benzofuran-2-ylmethylene)hydrazinyl)-4-(2,4-difluorophenyl)thiazole]
- IC50 (MAO-A enzyme): 0.13 ± 0.01 µM
- selectivity (MAO-A enzyme): MAO-A
- SI* selectivity index (MAO-A enzyme): >787.40
- inhibition at 1000 µM (MAO-A enzyme): 89.9 ± 1.76%
- inhibition at 100 µM (MAO-A enzyme): 73.7 ± 0.83%
- IC50 (MAO-B enzyme): > 100 µM
- inhibition at 1000 µM (MAO-B enzyme): 74.5 ± 1.4%
- inhibition at 100 µM (MAO-B enzyme): 40.7 ± 0.95%

SMILES: Clc1ccc(-c2csc(NN=Cc3cc4ccccc4o3)n2)c(Cl)c1 [2l, 2-(2-(Benzofuran-2-ylmethylene)hydrazinyl)-4-(2,4-dichlorophenyl)thiazole]
- IC50 (MAO-A enzyme): 0.073 µM and 0.07 µM
- selectivity (MAO-A enzyme): MAO-A
- SI* selectivity index (MAO-A enzyme): >10.30
- inhibition at 1000 µM (MAO-A enzyme): 94 ± 1.65%
- inhibition at 100 µM (MAO-A enzyme): 91.4 ± 1.36%
- IC50 (MAO-B enzyme): 0.75 ± 0.03 µM
- inhibition at 1000 µM (MAO-B enzyme): 86.6 ± 1.29%
- BBB permeability (in words) [1]: high BBB permeability
- IC50 at 24 h (Cytotoxicity test (MTT)): > 100 µM
- cytotoxic effect result [2]: nontoxic

SMILES: O=C(NCCN1CCOCC1)c1ccc(Cl)cc1 [Moclobemid, moclobemide, reference compound]
- inhibition at 1000 µM (MAO-A enzyme): 94.1 ± 2.76%
- inhibition at 100 µM (MAO-A enzyme): 82.1 ± 2.69%
